Test results taken from patent US4349551A, “Penicillin derivatives and compositions containing them” (Beecham Group Limited, priority 1980, dated 1982).
Values after ≈ are worked out from the molar mass of the structure shown. Like-named read-outs stand apart in the source and are kept apart here.

Experiments:
S. marcescens US 32 = assay: MIC against S. marcescens US 32; format: cell-based; details: Serratia marcescens, US32, Agar
From the text: (§1) | MIC values (μg/ml) of the compounds of | Examples 1 and 2 against a number of | organisms important in human infections | Organism Agar Broth Agar Broth Agar

S. aureus Oxford = assay: MIC against S. aureus Oxford; format: cell-based; details: Staphylococcus aureus, Agar
From the text: as §1

K. aerogenes A = assay: MIC against K. aerogenes A; format: cell-based; details: Klebsiella aerogenes
From the text: as §1

E. cloacae N1 = assay: MIC against E. cloacae N1; format: cell-based; details: Enterobacter cloacae, Agar
From the text: as §1

S. faecalis I = assay: MIC against S. faecalis I; format: cell-based; details: Enterococcus faecalis, Agar
From the text: as §1

S. aureus Russell = assay: MIC against S. aureus Russell; format: cell-based; details: Staphylococcus aureus, Agar
From the text: as §1

E. coli NCTC 10413 = assay: MIC against E. coli NCTC 10413; format: cell-based; details: Escherichia coli
From the text: as §1

B. subtilis = assay: MIC against B. subtilis; format: cell-based; details: Bacillus subtilis, Agar
From the text: as §1

[1] = test system: Ps. aeruginosa NCTC 10662; assay: MIC against Ps. aeruginosa NCTC 10662; format: cell-based; details: Agar
From the text: as §1

P. mirabilis C 977 = assay: MIC against P. mirabilis C 977; format: cell-based; details: Proteus mirabilis, C977, Agar
From the text: as §1

E. coli JT 4 = assay: MIC against E. coli JT 4; format: cell-based; details: Escherichia coli, JT4, Agar
From the text: as §1

P. morganii = assay: MIC against P. morganii; format: cell-based; details: Morganella morganii, Agar
From the text: as §1

S. pyogenes ON 10 = assay: MIC against S. pyogenes ON 10; format: cell-based; details: Streptococcus pyogenes, ON10, Agar
From the text: as §1

P. mirabilis 889 = assay: MIC against P. mirabilis 889; format: cell-based; details: Proteus mirabilis, Agar
From the text: as §1

P. rettgeri = assay: MIC against P. rettgeri; format: cell-based; details: Providencia rettgeri, Agar
From the text: as §1

E. coli JT 425 = assay: MIC against E. coli JT 425; format: cell-based; details: Escherichia coli, JT425, Agar
From the text: as §1

N. catarrhalis 1502 = assay: MIC against N. catarrhalis 1502; format: cell-based; details: Agar
From the text: as §1

Ps. aeruginosa Dalgleish = assay: MIC against Ps. aeruginosa Dalgleish; format: cell-based; details: Pseudomonas aeruginosa; Agar; Ps. aeruginosa Dalgleish 10^-2
From the text: as §1

[2] = reconversion of the formyl ester to the parent 6-hydroxymethyl penicillin; format: physicochemical
Method: The benzyl ester from the previous example (101 mg, 0.15 mmol) in THF (5 ml) was added to prehydrogenated 10% palladium on charcoal (100 mg) in THF (5 ml), water (1 ml). After shaking with hydrogen for 0.5 hours, the catalyst was filtered from the solution and washed well with N sodium bicarbonate solution (40 ml). The filtrate was washed with ethyl acetate (2×40 ml), acidified to pH 1.5 with 1 N-hydrochloric acid and extracted with ethyl acetate (3×40 ml). The combined extracts were washed with brine, dried and evaporated to give the title compound (46 mg, 51%), δ [(CD3)2 CO] 1.12, 1.35 (6H, 2s, 2 x CH3) 1.20 (3H, t, NCH2 CH3), 3.3-3.8 (4H, m, NCH2 and piperazine CH2), 3.8-4.3 (4H, m, CH2 O and piperazine CH2), 4.70 (1H, s, C3-proton), 5.57 (1H, s, C5 -proton), 5.72 (1H, d, J 6 Hz, α-proton) 7.45 (5H, m, aromatic protons), 8.25 (1H, s, CHO), 8.48 ( 1H, s, NH), 10.08 (1H, d, J 6 Hz, NH).

[3] = Ps. aeruginosa NCTC 10662 10^-2
[4] = Pseudomonas aeruginosa, NCTC10662, Ps. aeruginosa NCTC 10662, read-out: MIC

Row | Structure (SMILES) | MIC (S. marcescens US 32) [µg/mL] | MIC (S. aureus Oxford) [µg/mL] | MIC (K. aerogenes A; Agar) [µg/mL] | MIC (E. cloacae N1) [µg/mL] | MIC (S. faecalis I) [µg/mL] | MIC (S. aureus Russell) [µg/mL] | MIC (E. coli NCTC 10413; NCTC10413, Agar) [µg/mL] | MIC (B. subtilis) [µg/mL] | MIC [1, 3] [µg/mL] | MIC [1, 4] [µg/mL] | MIC (P. mirabilis C 977) [µg/mL] | MIC (E. coli JT 4) [µg/mL] | MIC (P. morganii) [µg/mL] | MIC (S. pyogenes ON 10) [µg/mL] | MIC (P. mirabilis 889) [µg/mL] | MIC (P. rettgeri) [µg/mL] | MIC (E. coli JT 425) [µg/mL] | MIC (K. aerogenes A; Broth) [µg/mL] | MIC (E. coli NCTC 10413; NCTC10413, Broth) [µg/mL] | MIC (N. catarrhalis 1502) [µg/mL] | other results
1 | CCN1CCN(C(=O)NC(C(=O)N[C@]2(CO)C(=O)N3[C@@H](C(=O)O)C(C)(C)S[C@@H]32)c2csc(N)n2)C(=O)C1=O (mixture of isomers) [Example 3, 6,α-Hydroxymethyl-6,β-[DL-α'-(4-ethyl-2,3-dioxopiperazine-1-carbonylamino)2-aminothiazole-4-acetamido]penicillanic acid] | 50 | > 100 | 1 | 25 | 100 | > 100 | 10 | > 100 | > 100 | > 100 | 10 | > 100 | 10 | > 100 | 10 | 25 | 100 | – | – | – | –
2 | CCN1CCN(C(=O)N[C@@H](C(=O)N[C@]2(CO)C(=O)N3[C@@H](C(=O)O)C(C)(C)S[C@@H]32)c2ccccc2)C(=O)C1=O [Example 1, 6,α-Hydroxymethyl-6,β-[D,α'-(4-ethyl-2,3-dioxopiperazine-1-carbonylamino)-phenylacetamido]penicillanic acid] | 50 (≈ 91.3 µM) | > 100 | 5 (≈ 9.13 µM) | 25 (≈ 45.7 µM) | > 100 | > 100 | 25 (≈ 45.7 µM) | > 100 | > 100 | > 100 | 10 (≈ 18.3 µM) | 100 (≈ 183 µM) | 25 (≈ 45.7 µM) | 25 (≈ 45.7 µM) | 5 (≈ 9.13 µM) | 50 (≈ 91.3 µM) | 50 (≈ 91.3 µM) | 100 (≈ 183 µM) | 10 (≈ 18.3 µM) | 1 (≈ 1.83 µM) | MIC (Ps. aeruginosa Dalgleish): > 100 µg/mL
3 | CCN1CCN(C(=O)N[C@@H](C(=O)N[C@]2(CO)C(=O)N3[C@@H](C(=O)O)C(C)(C)S[C@@H]32)c2ccc(O)cc2)C(=O)C1=O [Example 2, 6,α-Hydroxymethyl-6,β-[D,α'-(4-ethyl-2,3-dioxopiperazine-1-carbonylamino)-p-hydroxyphenylacetamido]penicillanic acid] | 5 (≈ 8.87 µM) | > 100 | 2.5 (≈ 4.44 µM) | 5 (≈ 8.87 µM) | > 100 | > 100 | 5 (≈ 8.87 µM) | > 100 | > 100 | > 100 | 2.5 (≈ 4.44 µM) | 100 (≈ 177 µM) | 5 (≈ 8.87 µM) | 2.5 (≈ 4.44 µM) | 2.5 (≈ 4.44 µM) | 5 (≈ 8.87 µM) | 50 (≈ 88.7 µM) | 1 (≈ 1.77 µM) | 5 (≈ 8.87 µM) | 1 (≈ 1.77 µM) | MIC (Ps. aeruginosa Dalgleish): > 100 µg/mL
4 | CCN1CCN(C(=O)N[C@@H](C(=O)N[C@]2(COC=O)C(=O)N3[C@@H](C(=O)O)C(C)(C)S[C@@H]32)c2ccccc2)C(=O)C1=O [Example 4, 6,α-Formyloxymethyl-6,β-[D,α'-(4-ethyl-2,3-dioxopiperazine-1-carbonylamino)-phenylacetamido]penicillanic acid] | – | – | – | – | – | – | – | – | – | – | – | – | – | – | – | – | – | – | – | – | reconversion to the 6-hydroxymethyl compound ([2]; in the solvents used for h.p.l.c.): complete and instantaneous; parent 6-hydroxymethyl penicillin formed on preparation of the sodium salt ([2]; precipitation from acetone using 2 N sodium ethyl hexanoate in methyl isobutyl ketone): an appreciable amount
